In the oligonucleotide strings, read from the 5' end, every base follows the letter of its sugar. An asterisk marks phosphorothioate; unmarked linkages are phosphodiester. Other units and linkages are bracketed, terminal groups are in braces. A string of capitals states the bases alone. d = 2'-deoxy (DNA); m = 2'-O-methyl
These substances were tested against T1, human TLR9 (Homo sapiens, UniProt Q9NR96) (assay: HEK-TLR9 NF-κB-luciferase reporter, ODN2006 stimulation). Settings: 3mer 2'OMe ASO at 2 uM; HEK-TLR9; value relative to Ligand only = 1.000, NT = 0.000.
T1 construct: HA; host or cells: 293XL-hTLR9-HA (HEK293)
T1 sequence (Q9NR96 26-1032): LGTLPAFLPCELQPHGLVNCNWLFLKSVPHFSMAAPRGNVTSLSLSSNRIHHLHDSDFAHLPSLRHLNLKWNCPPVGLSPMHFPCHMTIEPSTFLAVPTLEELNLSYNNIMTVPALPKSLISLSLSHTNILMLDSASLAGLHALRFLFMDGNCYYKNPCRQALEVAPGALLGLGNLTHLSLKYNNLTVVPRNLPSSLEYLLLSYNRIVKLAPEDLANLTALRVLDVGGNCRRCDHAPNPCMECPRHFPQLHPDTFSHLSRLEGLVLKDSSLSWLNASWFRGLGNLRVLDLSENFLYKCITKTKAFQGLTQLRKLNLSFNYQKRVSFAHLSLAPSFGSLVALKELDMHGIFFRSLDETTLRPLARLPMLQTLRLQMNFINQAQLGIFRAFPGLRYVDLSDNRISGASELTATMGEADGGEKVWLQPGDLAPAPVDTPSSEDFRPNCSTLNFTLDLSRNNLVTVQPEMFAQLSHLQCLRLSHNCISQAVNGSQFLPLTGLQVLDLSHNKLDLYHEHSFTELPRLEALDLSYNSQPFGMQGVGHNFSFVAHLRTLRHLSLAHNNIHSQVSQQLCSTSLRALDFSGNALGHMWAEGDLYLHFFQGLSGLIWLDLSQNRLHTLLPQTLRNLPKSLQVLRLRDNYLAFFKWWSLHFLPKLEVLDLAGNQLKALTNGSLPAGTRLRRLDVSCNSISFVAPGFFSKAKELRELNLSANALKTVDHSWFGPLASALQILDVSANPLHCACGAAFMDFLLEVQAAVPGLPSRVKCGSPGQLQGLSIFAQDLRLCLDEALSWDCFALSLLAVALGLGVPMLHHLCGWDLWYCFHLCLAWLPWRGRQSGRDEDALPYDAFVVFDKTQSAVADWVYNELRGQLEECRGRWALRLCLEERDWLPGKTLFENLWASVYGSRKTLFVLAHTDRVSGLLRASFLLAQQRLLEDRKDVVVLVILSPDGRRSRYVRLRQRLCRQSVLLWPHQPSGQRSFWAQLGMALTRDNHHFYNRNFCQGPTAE
Assay type: cell-based

Row | Substance | TLR9 2 uM
1 | dC*dA*dC (CAC; listed as RNA, chemistry not fully specified) | 0.830
2 | dC*dC*dA (CCA; listed as DNA, chemistry not fully specified) | 1.014
3 | dC*dC*dC (CCC; listed as DNA, chemistry not fully specified) | 1.069
4 | dC*dC*dG (CCG; listed as DNA, chemistry not fully specified) | 0.936
5 | dC*dG*dA (CGA; listed as DNA, chemistry not fully specified) | 1.061
6 | dG*dC*dC [GCC] | 1.305
7 | dG*dC*dG [GCG] | 1.299
8 | mAmUmC (mA*mU*mC) [AUC, 3-mer 2′OMe PS oligo] | 0.884
9 | mCmUmU (antisense mC*mU*mU) [660-3] | 1.108
10 | mGmAmU (mG*mA*mU) [GAU, 3-mer 2′OMe PS oligo] | 0.700
11 | mGmUmA (GUA; all 2'-O-methyl, backbone not given here; further chemistry not fully specified) [shortMut1-3b] | 1.042
12 | mGmUmC (mG*mU*mC) [GUC, 3-mer 2′OMe PS oligo] | 0.856
13 | mGmUmG (mG*mU*mG) [GUG, 3-mer 2′OMe PS oligo] | 1.374
14 | mGmUmU (mG*mU*mU) [GUU, 3-mer 2′OMe PS oligo] | 1.159
15 | mUmCmA (mU*mC*mA) [UCA, 3-mer 2′OMe PS oligo] | 0.872
16 | mUmCmG (antisense mU*mC*mG) [660-3b] | 0.514
17 | mUmGmA (mU*mG*mA) [UGA, 3-mer 2′OMe PS oligo] | 1.034
18 | mUmGmG (mU*mG*mG) [UGG, 3-mer 2′OMe PS oligo] | 1.137

Reference: patent US20240384268A1, “Oligonucleotides” (Hudson Institute of Medical Research, priority 2021, published 2024)
